For 36 compounds, Ki results are on record in US20110077237A1, “KINASE INHIBITORS” (VERTEX PHARMACEUTICALS INCORPORATED, priority 2007, published 2011).

Molecules are shown by their SMILES. pKi: −log10 of the molar value.

Assay type in all cases: biochemical
The target of one assay is PKC delta kinase (Homo sapiens, UniProt Q05655). Kind of assay: PKC Delta coupled-enzyme kinase assay. Conditions: 46 nM PKC delta, 150 μM ATP, 30° C.; read-out: Ki PKC delta. An outline of the steps:
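Assay buffer was 100 mM HEPES pH 7.5, 10 mM MgCl2, 25 mM NaCl, 0.1 mM EDTA, 0.01% Brij. Enzyme buffer was equilibrated with compound in DMSO for 10 min at 30 °C. Ki values were derived by non-linear regression of initial rate data.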

The target of a further assay is PKC alpha kinase (Homo sapiens, UniProt P17252). Kind of assay: PKC Alpha coupled-enzyme kinase assay. Conditions: 4.5 nM PKC alpha, 130 μM ATP, 30° C. The gist of the method:
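Coupled-enzyme assay in HEPES pH 7.5 with MgCl2, CaCl2, EDTA and Brij; enzyme preincubated with compound 10 min at 30 °C, reaction started with ATP (final 130 μM).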

The target in assay [1] is T1, PKC theta (Homo sapiens, UniProt Q04759). Nature of the assay: PKC Theta II 33P radiometric kinase assay. The settings on record: 0.5 nM PKC theta, 240 μM ATP, [γ-33P] ATP, 25° C., compound range 0-0.25 μM. The protocol:
An assay buffer solution was prepared which consisted of 100 mM HEPES (pH 7.5), 10 mM MgCl2, 25 mM NaCl, 0.1 mM EDTA and 0.01% Brij. An enzyme buffer containing reagents to final assay concentrations of 0.002% Triton X-100, 200 μg/mL Phosphatidylserine, 20 μg/mL Diacylglycerol, 2 mM DTT, 150 μM substrate peptide ([…]) and 0.5 nM PKC theta kinase was prepared in assay buffer. To 22 μL of this enzyme buffer, in a 96 well plate, was added 2 μL of VRT stock solution in DMSO. The mixture was allowed to equilibrate for 10 mins at 25° C. […] ATP.
The reaction was stopped after 60 minutes by the addition of 100 μL 100 mM phosphoric acid. A phosphocellulose 96 well plate (Millipore, Cat no. MAPHNOB) was washed with […] 100 mM phosphoric acid prior to the addition of the reaction mixture (120 μL) and was left to soak for at least 30 minutes, prior to wash steps (4×200 μL 100 mM phosphoric acid). After drying, 100 μL Optiphase ‘SuperMix’ liquid scintillation cocktail (Perkin Elmer) was added to the well prior to scintillation counting (1450 Microbeta Liquid Scintillation Counter, Wallac).
For each Ki determination, 11 data points covering the VRT concentration range of 0-0.25 μM were obtained in duplicate (DMSO stocks were prepared from an initial 10 mM VRT stock with subsequent 1:2 serial dilutions). Ki values were calculated from initial rate data by non-linear regression using the Prism software package (Prism 4.0a, Graphpad Software, San Diego, Calif.).

For assay [2], the target named is T1, PKC theta. Kind of assay: PKC Theta I coupled-enzyme (NADH absorbance) kinase assay. The settings on record: 18 nM PKC theta, 240 μM ATP, 30° C., absorbance at 340 nm. As for the experimental part:
An assay buffer solution was prepared which consisted of 100 mM HEPES (pH 7.5), 10 mM MgCl2, 25 mM NaCl, 0.1 mM EDTA and 0.01% Brij. […] To 60 μL of this enzyme buffer, in a 384 well plate, was added 2 μL of VRT stock solution in DMSO. The mixture was allowed to equilibrate for 10 mins at 30° C. […] Ki values were calculated from initial rate data by non-linear regression using the Prism software package (Prism 4.0a, Graphpad Software, San Diego, Calif.).

T1 sequence (Q04759 whole entry): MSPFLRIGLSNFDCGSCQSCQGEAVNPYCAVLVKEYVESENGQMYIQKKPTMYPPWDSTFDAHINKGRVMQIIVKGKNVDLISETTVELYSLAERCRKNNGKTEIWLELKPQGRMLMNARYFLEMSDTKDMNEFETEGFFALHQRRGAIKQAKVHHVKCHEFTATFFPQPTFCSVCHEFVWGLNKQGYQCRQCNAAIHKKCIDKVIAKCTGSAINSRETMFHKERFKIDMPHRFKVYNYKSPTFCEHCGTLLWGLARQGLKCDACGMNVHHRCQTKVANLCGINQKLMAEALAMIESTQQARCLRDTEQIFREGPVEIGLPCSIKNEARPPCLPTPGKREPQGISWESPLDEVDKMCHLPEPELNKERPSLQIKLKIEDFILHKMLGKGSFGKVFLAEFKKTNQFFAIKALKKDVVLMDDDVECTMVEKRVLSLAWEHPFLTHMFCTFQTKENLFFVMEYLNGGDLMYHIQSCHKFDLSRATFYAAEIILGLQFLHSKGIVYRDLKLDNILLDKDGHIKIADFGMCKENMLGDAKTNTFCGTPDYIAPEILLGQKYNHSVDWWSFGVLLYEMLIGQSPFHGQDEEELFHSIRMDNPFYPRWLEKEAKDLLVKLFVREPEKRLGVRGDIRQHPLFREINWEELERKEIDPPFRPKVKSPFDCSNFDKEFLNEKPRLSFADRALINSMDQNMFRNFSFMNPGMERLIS
Sequence of PKC delta kinase (Q05655 whole entry): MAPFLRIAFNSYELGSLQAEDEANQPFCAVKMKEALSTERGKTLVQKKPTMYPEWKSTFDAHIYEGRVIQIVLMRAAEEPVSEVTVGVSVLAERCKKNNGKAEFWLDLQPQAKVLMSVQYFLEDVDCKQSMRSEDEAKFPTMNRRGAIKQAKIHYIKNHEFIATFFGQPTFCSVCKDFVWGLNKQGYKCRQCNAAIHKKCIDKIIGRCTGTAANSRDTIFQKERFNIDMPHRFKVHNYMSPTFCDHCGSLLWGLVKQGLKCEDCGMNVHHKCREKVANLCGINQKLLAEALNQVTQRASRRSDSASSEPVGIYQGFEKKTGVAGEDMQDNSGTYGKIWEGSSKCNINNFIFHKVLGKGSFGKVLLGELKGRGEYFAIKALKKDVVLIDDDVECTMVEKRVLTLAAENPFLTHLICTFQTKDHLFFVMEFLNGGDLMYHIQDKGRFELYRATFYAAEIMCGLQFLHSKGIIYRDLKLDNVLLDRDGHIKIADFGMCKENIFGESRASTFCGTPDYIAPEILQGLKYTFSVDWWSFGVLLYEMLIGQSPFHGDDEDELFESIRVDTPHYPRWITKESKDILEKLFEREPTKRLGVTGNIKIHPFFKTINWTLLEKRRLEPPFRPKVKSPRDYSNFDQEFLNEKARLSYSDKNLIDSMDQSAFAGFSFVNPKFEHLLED

Turning to `Nc1ncc(Br)cc1C(=O)c1cccc(N2CCCNCC2)n1` [compound 14, (6-(1,4-diazepan-1-yl)pyridin-2-yl)(2-amino-5-bromopyridin-3-yl)methanone], the pKi at PKC delta kinase was 6.30 to 7.30; at PKC alpha kinase, above 7.30; at PKC theta [1], above 7.30.

On to `Nc1ncc(Br)cc1C(=O)c1cccc(N2CCCN(C(=O)CC(F)(F)F)CC2)n1` [compound 75, 1-(4-(6-(2-amino-5-bromonicotinoyl)pyridin-2-yl)-1,4-diazepan-1-yl)-3,3,3-trifluoropropan-1-one], for which the figures for the pKi on PKC delta kinase and at PKC theta [1] were 6.30 to 7.30 and above 7.30, respectively.

`C=Cc1cnc(N)c(C(=O)c2cccc(N3CCC(N)CC3)n2)c1` [compound 164]: on PKC theta [1], the pKi was 6.30 to 7.30.

In turn, `C=Cc1ccc(N2CCN[C@@H](CC(C)C)C2)nc1C(=O)c1cccnc1N` [compound 346] had a pKi on PKC theta [1] of 6.30 to 7.30.

For the compound `C=Cc1cnc(N)c(C(=O)c2cccc(N3CCCN(C(=O)CC(F)(F)F)CC3)n2)c1` [compound 107, 1-(4-(6-(2-amino-5-vinylnicotinoyl)pyridin-2-yl)-1,4-diazepan-1-yl)-3,3,3-trifluoropropan-1-one], the pKi at PKC delta kinase is 6.30 to 7.30; at PKC theta [1], above 7.30.

Regarding `CN1CCCN(c2cccc(C(=O)c3cc(Br)cnc3N)n2)CC1` [compound 67], the pKi was 6.30 to 7.30 on PKC delta kinase and above 7.30 at PKC theta [1].

Turning to `CC(C)C[C@H]1CN(c2cccc(C(=O)c3cccnc3N)n2)CCN1` [compound 193], at PKC theta [1], the pKi was 6.30 to 7.30.

In the case of `Nc1ncccc1C(=O)c1nc(NCCCO)ccc1C(F)(F)F` [compound 419], the pKi on PKC delta kinase, on PKC theta [2] and at PKC alpha kinase was 5.55 to 6.30 each time.

Turning to `CC#Cc1ccc(N2CCN[C@@H](CC(C)C)C2)nc1C(=O)c1cccnc1N` [compound 402], the results for the pKi at PKC alpha kinase and at PKC theta [1] were above 7.30 and 6.30 to 7.30, respectively.

Regarding `Cc1cc(Nc2ccc(C(F)(F)F)c(C(=O)c3cccnc3N)n2)[nH]n1` [compound 393], the pKi on PKC delta kinase, on PKC theta [2] and on PKC alpha kinase was 5.55 to 6.30 throughout.

For the compound `Nc1ncccc1C(=O)c1nc(NC2CCCCC2N)ccc1C(F)(F)F` (centres unmarked) [compound 414], the pKi at PKC delta kinase, on PKC theta [2] and on PKC alpha kinase was 5.55 to 6.30 in each case.

Consider `CNCCNc1ccc(C(F)(F)F)c(C(=O)c2cccnc2N)n1` [compound 373], for which the pKi on PKC delta kinase, at PKC theta [2] and on PKC alpha kinase was 5.55 to 6.30 each time.

In the case of `Cc1cc(N)n(-c2ccc(C(F)(F)F)c(C(=O)c3cccnc3N)n2)n1` [compound 394], the pKi at PKC delta kinase, at PKC theta [2] and on PKC alpha kinase was 5.55 to 6.30 each time.

`C#Cc1ccc(N2CCN[C@@H](CC(C)C)C2)nc1C(=O)c1cccnc1N` [compound 357]: the pKi at PKC theta [1] was 6.30 to 7.30.

As to `Nc1ncccc1C(=O)c1nc(N2CCNCC2)ccc1C#CC1CC1` [compound 409], the pKi at PKC delta kinase, on PKC theta [2] and on PKC alpha kinase was 5.55 to 6.30 each time.

Turning to `Nc1ncccc1C(=O)c1nc(N2CCNCC2)ccc1C1CC1` [compound 354], the pKi on PKC delta kinase was 5.55 to 6.30; on PKC theta [2], 5.55 to 6.30; on PKC alpha kinase it was below 5.55.

On to `CC(C)[C@H](CN)Nc1ccc(C(F)(F)F)c(C(=O)c2cccnc2N)n1` [compound 370], for which the pKi at PKC delta kinase, at PKC theta [2] and at PKC alpha kinase was 5.55 to 6.30 in each case.

`Nc1ncccc1C(=O)c1nc(NCC2CCCCN2)ccc1C(F)(F)F` (centres unmarked) [compound 382]: the pKi on PKC delta kinase, at PKC theta [2] and at PKC alpha kinase was 5.55 to 6.30 in each case.

On to `CCCNc1ccc(C(F)(F)F)c(C(=O)c2cccnc2N)n1` [compound 398], for which the pKi on PKC delta kinase, on PKC theta [2] and at PKC alpha kinase was 5.55 to 6.30 throughout.

As for `Nc1ncc(-c2c[nH]c3ccccc23)cc1C(=O)c1cccc(N2CCCNCC2)n1` [compound 179], the pKi at PKC alpha kinase was above 7.30; on PKC theta [1] it was 6.30 to 7.30.

In the case of `Cn1cc(-c2cnc(N)c(C(=O)c3cccc(N4CCCNCC4)n3)c2)c2ccccc21` [compound 210], the pKi is above 7.30 at PKC alpha kinase and 6.30 to 7.30 at PKC theta [1].

Turning to `CC1CNCCN1c1cccc(C(=O)c2cccnc2N)n1` (centres unmarked) [compound 191], the pKi at PKC theta [1] was 6.30 to 7.30.

In the case of `Cc1cccc(C)c1C1CN(c2cccc(C(=O)c3cccnc3N)n2)CCN1` (centres unmarked) [compound 337], the pKi on PKC delta kinase was below 5.55; on PKC theta [2], 5.55 to 6.30; at PKC alpha kinase, 5.55 to 6.30.

As for `Nc1ncccc1C(=O)c1nc(N2CCNC(c3ccccc3)C2)ccc1C#CC1CC1` (centres unmarked) [compound 408], the pKi at PKC delta kinase, at PKC theta [2] and on PKC alpha kinase was 5.55 to 6.30 in each case.

For `NCCCOc1ccc(C(F)(F)F)c(C(=O)c2cccnc2N)n1` [compound 405], the pKi at PKC delta kinase, at PKC theta [2] and on PKC alpha kinase was 5.55 to 6.30 in each case.

`Nc1ncccc1C(=O)c1ccn(C2CCNCC2)n1` [compound 184]: the pKi at PKC delta kinase, on PKC theta [2] and on PKC alpha kinase was 5.55 to 6.30 each time.

As for `Nc1ncccc1C(=O)c1cccc(N2CCNC(c3cccc(Cl)c3)C2)n1` (centres unmarked) [compound 301], the pKi at PKC theta [1] was 6.30 to 7.30.

Consider `CC(C)(N)CNc1ccc(C(F)(F)F)c(C(=O)c2cccnc2N)n1` [compound 368], for which the pKi at PKC delta kinase, on PKC theta [2] and on PKC alpha kinase was 5.55 to 6.30 each time.

With `C=Cc1cnc(N)c(C(=O)c2cccc(N3CCCNCC3)n2)c1` [compound 66], the results for the pKi at PKC delta kinase, at PKC alpha kinase and on PKC theta [1] were 6.30 to 7.30, above 7.30 and 6.30 to 7.30, respectively.

Take `Nc1ncc(-c2ccccc2)cc1C(=O)c1cccc(N2CCCNCC2)n1` [compound 45]: the pKi on PKC delta kinase is 6.30 to 7.30; on PKC alpha kinase it was above 7.30; at PKC theta [1] it was above 7.30.

Turning to `CC(C)C[C@H]1CN(c2ccc(-c3cnn(C)c3)c(C(=O)c3cccnc3N)n2)CCN1` [compound 420], the pKi at PKC delta kinase, at PKC theta [2] and on PKC alpha kinase was 5.55 to 6.30 in each case.

For the compound `Nc1ncccc1C(=O)c1cccc(Br)n1` [compound 390], the pKi on PKC delta kinase, on PKC theta [2] and at PKC alpha kinase was 5.55 to 6.30 in each case.

Consider `Nc1ncc(-c2c[nH]c3ccccc23)cc1C(=O)c1cncc(N2CCCNCC2)n1` [compound 213], for which, at PKC theta [1], the pKi was 6.30 to 7.30.

`Nc1ncccc1C(=O)c1nc(NC2CCCNC2)ccc1C(F)(F)F` (centres unmarked) [compound 381]: the pKi on PKC delta kinase, at PKC theta [2] and at PKC alpha kinase was 5.55 to 6.30 throughout.

As to `Nc1ncccc1C(=O)c1ccn(C2CCCNCC2)n1` (centres unmarked) [compound 203], the pKi on PKC delta kinase, on PKC theta [2] and at PKC alpha kinase was 5.55 to 6.30 throughout.

Take `C/C=C/c1ccc(N2CCN[C@@H](CC(C)C)C2)nc1C(=O)c1cccnc1N` [compound 361]: the pKi on PKC theta [1] is 6.30 to 7.30.
